# Columns and labels:
# Type in all cases: cell-based
# Sc. pneumoniae [1] = experiment: Qualitative examination: enrichment of the inoculated test preparation in broth
# Source text: (§1) Escherichia (E.coli) Staphylococcus (S.aureus) Streptococcus (Sc.) Pneumoniae Pseudomonas (P.aeruginosa) Staphylococcus (S. epidermidis) Haemophilus (H. influenzae)
# (§2) Die verschiedenen Testkeime wurde jeweils aus einem Lyophilisat in NaCl-Peptonpuffer homogenisiert und auf Caseinpepton-Sojymehlpepton. (Caso-) Agar (Fa. bioMérieux; Art. Nr. 43019) bez. Kochblut-Agar (Fa. bioMérieux; Art. Nr. 43109) subkultiviert. Die Teststämme wurden vor Versuchsbeginn durch Erstellen eines biochemischen Profils mittels ATB/Vitek-System (Fa. bioMérieux, Nürtingen) auf Reinheit und Identität überprüft.
# (§3) Die verschiedenen Testsubstanzen a. bis j. wurden jeweils zu 5 ml in sterile Zentrifugenröhrchen abgefüllt und mit ca. 10^5 KBE^*/ml (* = koloniebildende Einheiten) der oben genannten Testkeime kontaminiert. Pro Substanz wurde für jeden Testkeim und jede zu prüfende Testzeit ein separater Ansatz angeimpft, d.h.10 Testsubstanzen zu jeweils 7 Testzeiten und 6 Testkeime (= insgesamt 502 Testansätze). […] Der Überstand wurde dekantiert und das Pellet in 5 ml NaCl Peptonpuffer aufgenommen und resuspendiert. Die Suspension wurde erneut 10 Minuten bei 3000 rpm abzentrifugiert und 5 ml NaCl-Peptonpuffer aufgenommen und mittels Vortex homogenisiert.
# (§4) Jeweils 2 ml der Testansätze wurden in 20 ml Caso-Bouillon oder für H. influenzae, in Fildes-Medium der Firma Becton Dickinson, ARt. Nr. 0349-739, angereichert und ebenfalls maximal 4 Tage bei 33± 2°C bebrütet. Ein negatives Ergebnis der Anreicherung belegt die Elimination der inokulierten Keime.
# E.coli [2] = experiment: as above
# Source text: as §1, §2, §3, §4
# S.aureus [3] = experiment: as above
# Source text: as §1, §2, §3, §4
# S.epidermidis = experiment: as above
# Source text: as §1, §2, §3, §4
# P.aeruginosa [4] = experiment: as above
# Source text: as §1, §2
# (§5) Die verschiedenen Testsubstanzen a. bis j. wurden jeweils zu 5 ml in sterile Zentrifugenröhrchen abgefüllt und mit ca. 10^5 KBE^*/ml (* = koloniebildende Einheiten) der oben genannten Testkeime kontaminiert. Pro Substanz wurde für jeden Testkeim und jede zu prüfende Testzeit ein separater Ansatz angeimpft, d.h.10 Testsubstanzen zu jeweils 7 Testzeiten und 6 Testkeime (= insgesamt 502 Testansätze). Nach 2, 6, 8, 24, 32, 48 und 72 Stunden wurde dann der jeweilige Testansatz 10 Minuten bei 3000 rpm abzentrifugiert. Der Überstand wurde dekantiert und das Pellet in 5 ml NaCl Peptonpuffer aufgenommen und resuspendiert. Die Suspension wurde erneut 10 Minuten bei 3000 rpm abzentrifugiert und 5 ml NaCl-Peptonpuffer aufgenommen und mittels Vortex homogenisiert.
# as §4
# H.influenzae [5] = experiment: as above
# Source text: as §1, §2, §5, §4
# P.aeruginosa [6] = experiment: Quantitative germ count (re-isolation, surface method) after inoculating the test preparation; details: Ausgangskeimzahl 2,7 x 10^5 KBE/ml
# Source text: as §1, §2
# (§6) Die Ausgangskeimzahl wurde im Oberflächenverfahren mit Hilfe eines Spiralplaters (Fa. Meintrup, Lähden) ermittelt und ist im einzelnen den Tabellen 1-12 zu entnehmen.
# as §5
# (§7) Die anschließende Keimzahlbestimmung erfolgte im Oberflächenverfahren durch Ausspiralisieren eines […] Aliquots auf Caso-Agar bzw. für H. influenzae auf Kochblut-Agar. Die Platten wurden bei 33±2°C für max. 4 Tage bebrütet. Die Nachweisgrenze des Verfahrens liegt bei 100 KBE/ml.
# Sc. pneumoniae [7] = experiment: as above; details: Ausgangskeimzahl 3,7 x 10^5 KBE/ml
# Source text: as §1, §2, §6, §3, §7
# E.coli [8] = experiment: as above; details: Ausgangskeimzahl 2,7 x 10^5 KBE/ml
# Source text: as §1, §2, §6, §3, §7
# S.aureus [9] = experiment: as above; details: Ausgangskeimzahl 2,6 x 10^5 KBE/ml
# Source text: as §1, §2, §6, §3, §7
# H.influenzae [10] = experiment: as above; details: Ausgangskeimzahl 2,8 x 10^5 KBE/ml
# Source text: as §1, §2, §6, §3, §7
substance,measurement,setting,value
"Benzalkoniumchlorid [Benzalkoniumchlorid 0,006 Gew.-%]",Ergebnis der Reisolierung qualitiativ (+/-) nach Anreicherung,Sc. pneumoniae [1]; 2 h after inoculation,-
same,Ergebnis der Reisolierung qualitiativ (+/-) nach Anreicherung,Sc. pneumoniae [1]; 4 h after inoculation,-
same,Ergebnis der Reisolierung qualitiativ (+/-) nach Anreicherung,Sc. pneumoniae [1]; 6 h after inoculation,-
same,Ergebnis der Reisolierung qualitiativ (+/-) nach Anreicherung,Sc. pneumoniae [1]; 8 h after inoculation,-
same,Ergebnis der Reisolierung qualitiativ (+/-) nach Anreicherung,Sc. pneumoniae [1]; 24 h after inoculation,-
same,Ergebnis der Reisolierung qualitiativ (+/-) nach Anreicherung,Sc. pneumoniae [1]; 32 h after inoculation,-
same,Ergebnis der Reisolierung qualitiativ (+/-) nach Anreicherung,Sc. pneumoniae [1]; 48 h after inoculation,-
same,Ergebnis der Reisolierung qualitiativ (+/-) nach Anreicherung,Sc. pneumoniae [1]; 72 h after inoculation,-
same,Ergebnis der Reisolierung qualitiativ (+/-) nach Anreicherung,E.coli [2]; 2 h after inoculation,-
same,Ergebnis der Reisolierung qualitiativ (+/-) nach Anreicherung,E.coli [2]; 4 h after inoculation,-
same,Ergebnis der Reisolierung qualitiativ (+/-) nach Anreicherung,E.coli [2]; 6 h after inoculation,-
same,Ergebnis der Reisolierung qualitiativ (+/-) nach Anreicherung,E.coli [2]; 8 h after inoculation,-
same,Ergebnis der Reisolierung qualitiativ (+/-) nach Anreicherung,E.coli [2]; 24 h after inoculation,-
same,Ergebnis der Reisolierung qualitiativ (+/-) nach Anreicherung,E.coli [2]; 32 h after inoculation,-
same,Ergebnis der Reisolierung qualitiativ (+/-) nach Anreicherung,E.coli [2]; 48 h after inoculation,-
same,Ergebnis der Reisolierung qualitiativ (+/-) nach Anreicherung,E.coli [2]; 72 h after inoculation,-
same,Ergebnis der Reisolierung qualitiativ (+/-) nach Anreicherung,S.aureus [3]; 2 h after inoculation,-
same,Ergebnis der Reisolierung qualitiativ (+/-) nach Anreicherung,S.aureus [3]; 4 h after inoculation,-
same,Ergebnis der Reisolierung qualitiativ (+/-) nach Anreicherung,S.aureus [3]; 6 h after inoculation,-
same,Ergebnis der Reisolierung qualitiativ (+/-) nach Anreicherung,S.aureus [3]; 8 h after inoculation,-
same,Ergebnis der Reisolierung qualitiativ (+/-) nach Anreicherung,S.aureus [3]; 24 h after inoculation,-
same,Ergebnis der Reisolierung qualitiativ (+/-) nach Anreicherung,S.aureus [3]; 32 h after inoculation,-
same,Ergebnis der Reisolierung qualitiativ (+/-) nach Anreicherung,S.aureus [3]; 48 h after inoculation,-
same,Ergebnis der Reisolierung qualitiativ (+/-) nach Anreicherung,S.aureus [3]; 72 h after inoculation,-
same,Ergebnis der Reisolierung qualitiativ (+/-) nach Anreicherung,S.epidermidis; 2 h after inoculation,-
same,Ergebnis der Reisolierung qualitiativ (+/-) nach Anreicherung,S.epidermidis; 4 h after inoculation,-
same,Ergebnis der Reisolierung qualitiativ (+/-) nach Anreicherung,S.epidermidis; 6 h after inoculation,-
same,Ergebnis der Reisolierung qualitiativ (+/-) nach Anreicherung,S.epidermidis; 8 h after inoculation,-
same,Ergebnis der Reisolierung qualitiativ (+/-) nach Anreicherung,S.epidermidis; 24 h after inoculation,-
same,Ergebnis der Reisolierung qualitiativ (+/-) nach Anreicherung,S.epidermidis; 32 h after inoculation,-
same,Ergebnis der Reisolierung qualitiativ (+/-) nach Anreicherung,S.epidermidis; 48 h after inoculation,-
same,Ergebnis der Reisolierung qualitiativ (+/-) nach Anreicherung,S.epidermidis; 72 h after inoculation,-
same,Ergebnis der Reisolierung qualitiativ (+/-) nach Anreicherung,P.aeruginosa [4]; 2 h after inoculation,-
same,Ergebnis der Reisolierung qualitiativ (+/-) nach Anreicherung,P.aeruginosa [4]; 4 h after inoculation,-
same,Ergebnis der Reisolierung qualitiativ (+/-) nach Anreicherung,P.aeruginosa [4]; 6 h after inoculation,-
same,Ergebnis der Reisolierung qualitiativ (+/-) nach Anreicherung,P.aeruginosa [4]; 8 h after inoculation,-
same,Ergebnis der Reisolierung qualitiativ (+/-) nach Anreicherung,P.aeruginosa [4]; 24 h after inoculation,-
same,Ergebnis der Reisolierung qualitiativ (+/-) nach Anreicherung,P.aeruginosa [4]; 32 h after inoculation,-
same,Ergebnis der Reisolierung qualitiativ (+/-) nach Anreicherung,P.aeruginosa [4]; 48 h after inoculation,-
same,Ergebnis der Reisolierung qualitiativ (+/-) nach Anreicherung,P.aeruginosa [4]; 72 h after inoculation,-
same,Ergebnis der Reisolierung qualitiativ (+/-) nach Anreicherung,H.influenzae [5]; 2 h after inoculation,-
same,Ergebnis der Reisolierung qualitiativ (+/-) nach Anreicherung,H.influenzae [5]; 4 h after inoculation,-
same,Ergebnis der Reisolierung qualitiativ (+/-) nach Anreicherung,H.influenzae [5]; 6 h after inoculation,-
same,Ergebnis der Reisolierung qualitiativ (+/-) nach Anreicherung,H.influenzae [5]; 8 h after inoculation,-
same,Ergebnis der Reisolierung qualitiativ (+/-) nach Anreicherung,H.influenzae [5]; 24 h after inoculation,-
same,Ergebnis der Reisolierung qualitiativ (+/-) nach Anreicherung,H.influenzae [5]; 32 h after inoculation,-
same,Ergebnis der Reisolierung qualitiativ (+/-) nach Anreicherung,H.influenzae [5]; 48 h after inoculation,-
same,Ergebnis der Reisolierung qualitiativ (+/-) nach Anreicherung,H.influenzae [5]; 72 h after inoculation,-
same,Ergebnis der Reisolierung (in KBE/ml),P.aeruginosa [6]; 2 h after inoculation,<100 KBE/ml
same,Ergebnis der Reisolierung (in KBE/ml),P.aeruginosa [6]; 4 h after inoculation,<100 KBE/ml
same,Ergebnis der Reisolierung (in KBE/ml),P.aeruginosa [6]; 6 h after inoculation,<100 KBE/ml
same,Ergebnis der Reisolierung (in KBE/ml),P.aeruginosa [6]; 8 h after inoculation,<100 KBE/ml
same,Ergebnis der Reisolierung (in KBE/ml),P.aeruginosa [6]; 24 h after inoculation,<100 KBE/ml
same,Ergebnis der Reisolierung (in KBE/ml),P.aeruginosa [6]; 32 h after inoculation,<100 KBE/ml
same,Ergebnis der Reisolierung (in KBE/ml),P.aeruginosa [6]; 48 h after inoculation,<100 KBE/ml
same,Ergebnis der Reisolierung (in KBE/ml),P.aeruginosa [6]; 72 h after inoculation,<100 KBE/ml
same,Ergebnis der Reisolierung (in KBE/ml),Sc. pneumoniae [7]; 2 h after inoculation,<100 KBE/ml
same,Ergebnis der Reisolierung (in KBE/ml),Sc. pneumoniae [7]; 4 h after inoculation,<100 KBE/ml
same,Ergebnis der Reisolierung (in KBE/ml),Sc. pneumoniae [7]; 6 h after inoculation,<100 KBE/ml
same,Ergebnis der Reisolierung (in KBE/ml),Sc. pneumoniae [7]; 8 h after inoculation,<100 KBE/ml
same,Ergebnis der Reisolierung (in KBE/ml),Sc. pneumoniae [7]; 24 h after inoculation,<100 KBE/ml
same,Ergebnis der Reisolierung (in KBE/ml),Sc. pneumoniae [7]; 32 h after inoculation,<100 KBE/ml
same,Ergebnis der Reisolierung (in KBE/ml),Sc. pneumoniae [7]; 48 h after inoculation,<100 KBE/ml
same,Ergebnis der Reisolierung (in KBE/ml),Sc. pneumoniae [7]; 72 h after inoculation,<100 KBE/ml
same,Ergebnis der Reisolierung (in KBE/ml),E.coli [8]; 2 h after inoculation,<100 KBE/ml
same,Ergebnis der Reisolierung (in KBE/ml),E.coli [8]; 4 h after inoculation,<100 KBE/ml
same,Ergebnis der Reisolierung (in KBE/ml),E.coli [8]; 6 h after inoculation,<100 KBE/ml
same,Ergebnis der Reisolierung (in KBE/ml),E.coli [8]; 8 h after inoculation,<100 KBE/ml
same,Ergebnis der Reisolierung (in KBE/ml),E.coli [8]; 24 h after inoculation,<100 KBE/ml
same,Ergebnis der Reisolierung (in KBE/ml),E.coli [8]; 32 h after inoculation,<100 KBE/ml
same,Ergebnis der Reisolierung (in KBE/ml),E.coli [8]; 48 h after inoculation,<100 KBE/ml
same,Ergebnis der Reisolierung (in KBE/ml),E.coli [8]; 72 h after inoculation,<100 KBE/ml
same,Ergebnis der Reisolierung (in KBE/ml),S.aureus [9]; 2 h after inoculation,<100 KBE/ml
same,Ergebnis der Reisolierung (in KBE/ml),S.aureus [9]; 4 h after inoculation,<100 KBE/ml
same,Ergebnis der Reisolierung (in KBE/ml),S.aureus [9]; 6 h after inoculation,<100 KBE/ml
same,Ergebnis der Reisolierung (in KBE/ml),S.aureus [9]; 8 h after inoculation,<100 KBE/ml
same,Ergebnis der Reisolierung (in KBE/ml),S.aureus [9]; 24 h after inoculation,<100 KBE/ml
same,Ergebnis der Reisolierung (in KBE/ml),S.aureus [9]; 32 h after inoculation,<100 KBE/ml
same,Ergebnis der Reisolierung (in KBE/ml),S.aureus [9]; 48 h after inoculation,<100 KBE/ml
same,Ergebnis der Reisolierung (in KBE/ml),S.aureus [9]; 72 h after inoculation,<100 KBE/ml
same,Ergebnis der Reisolierung (in KBE/ml),H.influenzae [10]; 2 h after inoculation,<100 KBE/ml
same,Ergebnis der Reisolierung (in KBE/ml),H.influenzae [10]; 4 h after inoculation,<100 KBE/ml
same,Ergebnis der Reisolierung (in KBE/ml),H.influenzae [10]; 6 h after inoculation,<100 KBE/ml
same,Ergebnis der Reisolierung (in KBE/ml),H.influenzae [10]; 8 h after inoculation,<100 KBE/ml
same,Ergebnis der Reisolierung (in KBE/ml),H.influenzae [10]; 24 h after inoculation,<100 KBE/ml
same,Ergebnis der Reisolierung (in KBE/ml),H.influenzae [10]; 32 h after inoculation,<100 KBE/ml
same,Ergebnis der Reisolierung (in KBE/ml),H.influenzae [10]; 48 h after inoculation,<100 KBE/ml
same,Ergebnis der Reisolierung (in KBE/ml),H.influenzae [10]; 72 h after inoculation,<100 KBE/ml

# From patent EP1171107B1, “USE OF A PHARMACEUTICAL COMPOSITION IN THE MANUFACTURE OF A MEDICAMENT FOR THE TREATMENT OF PATHOLOGICAL CONDITIONS OF THE EYE CAUSED BY BACTERIA, VIRUSES, FUNGI, YEASTS AND PROTOZOA” (Dr. GERHARD MANN chem.-pharm. Fabrik GmbH, priority 1999, dated 2000)
